Tested on: 521955-158-R2-J5-PDC complex spheroids, viability
Assay: Anticancer human tumor 521955-158-R2-J5-PDC patient-derived pancreatic carcinoma cell line growth inhibition [RAS]
Settings: for IC50: curve of first compound; for viability, T/C: stronger effect = lower value
Text: RAS pathway inhibitors in Combinations in Complex Spheroids
A high-throughput screen of multi-cell type tumor spheroids was designed to identify active combinations of RAS pathway inhibitors and targeted small molecules. Complex spheroids include a stromal component modeled by human endothelial cells (HUVEC) and fibroblasts modeled by human mesenchymal stem cells (MSCs). The concentration ranges selected for each drug and investigational agent were based upon clinically achievable concentrations if the clinical Cmax of the agent was known.
Compounds. The drugs and investigational agents: abemaciclib (NSC768073), cobimetinib (NSC768068), divarasib (GDC6063, NSC841802), docetaxel (NSC628503), GDC-1971 (RLY-1971, NSC841576), gemcitabine (NSC613327), inavolisib (NSC800729), ipatasertib (NSC767898), KB-0742 (NSC834161), MRTX-1133 (NSC836407), osimertinib (NSC779217), RMC-4630 (NSC839698), RMC-6236 (NSC851965), RMC-6291 (NSC852671), Ro-3306 (NSC812927), sapanisertib (NSC764658), SN-38 (NSC673596), staurosporine (NSC755774), SY5609 (NSC837396), and tovorafenib (DAY101, NSC766906), were obtained from the National Cancer Institute (NCI) Developmental Therapeutics Program Chemical Repository. The FDA-approved anticancer drug set is available from the NCI Developmental Therapeutics Program. […] The stock solutions were prepared in dimethyl sulfoxide (DMSO, Sigma-Aldrich, St. Louis, MO, cat. D2650) at 800-fold the tested concentration and stored at -70 degrees C prior to their use. All drugs and investigational agents were tested over a range starting from a high concentration at or near the clinical Cmax and decreasing in half-log increments. If the clinical Cmax for an agent had not been determined, the highest concentration tested was 10 microM.
Cell Culture. All cells were maintained in an incubator at 37 degrees C and 5% CO2 with 95% humidity. The PDC lines were cultured according to standard operating procedures established by the NCI PDMR. All PDCs were thawed and cultured in Matrigel-coated flasks prepared with a working solution of 1X Ham's F-12 nutrient mix, without supplementation (Invitrogen, Waltham, MA, cat. 11765054), 100 U/mL penicillin-streptomycin (Invitrogen, cat. 15140122), and 2.5% Matrigel (Corning Inc., Corning, NY, cat. 354248) for the first three passages. The 362531-283-R-J2-PDC and 782815-120-R-J1-PDC lines were cultured in 6C/Colon 1B media, which includes advanced DMEM/F-12 (Thermo Fisher Scientific, cat. 12634028), 10 mM HEPES (Thermo Fisher Scientific, cat. 15630080), 1X GlutaMAX supplement (Thermo Fisher Scientific, cat. 35050061), 0.1 mg/mL primocin (InvivoGen, San Diego, CA, cat. ant-pm-2), 10% defined fetal bovine serum, heat inactivated (HyClone Laboratories Inc., Logan, UT, cat. SH30070.03HI), 50% L-WRN conditioned media (ATCC, cat. CRL-3276), 1.25 mM N-Acetyl-L-cysteine (Sigma-Aldrich, cat. A9165), 10 mM nicotinamide (Sigma-Aldrich, cat. N0636), 1X B-27 supplement (Thermo Fisher Scientific, cat. 17504044), 1X N-2 supplement (Thermo Fisher Scientific, cat. 17502048), 50 ng/mL human EGF (Thermo Fisher Scientific, cat. PHG0311), and 10 microM Y-27632 dihydrochloride (Tocris Bioscience, cat. 1254). The K12877-001-R-J1-PDC line was cultured in 6I media, which includes all 6C/Colon 1B media plus 10 ng/mL human FGF-10 (PeproTech, cat. 100-26), 1 ng/mL human FGF-2 (PeproTech, cat. 100-18B), 1 µM prostaglandin E2 (Tocris Bioscience, cat. 2296), […] hydrocortisone (Sigma-Aldrich, cat. H4001), and […] bovine insulin (Sigma-Aldrich, cat. I6634). The K86415-001-R-J1-PDC line was cultured in 6D media, which includes all 6C/Colon 1B media components minus the L-WRN conditioned media. The 485176-168-R4-J1-PDC was cultured in PANC media, which includes all 6C/Colon 1B media plus 100 ng/mL human FGF-10 (PeproTech, cat. 100-26), 500 nM SB-431542 (Selleckchem, cat. S1067), and 10 nM gastrin (Tocris Bioscience, cat. 3006). […]
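Also: compound exposure lasted seven days before the viability read.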
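For viability, T/C in this document: spheroids also contain HUVEC endothelial cells and mesenchymal stem cells as stroma.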

`CC(C)NCC(C(=O)N1CCN(c2ncnc3c2C(C)CC3O)CC1)c1ccc(Cl)cc1` (configuration not stated) + C#Cc1c(F)ccc2cc(O)cc(-c3ncc4c(N5CC6CCC(C5)N6)nc(OCC56CCCN5CC(F)C6)nc4c3F)c12 showed an IC50 (second compound 0.0316 µM) of 49.1 nM, an IC50 (second compound 0.1 µM) of less than 31.6 nM and an IC50 (second compound 0.316 µM) of less than 31.6 nM. For the same molecule, the IC50 (second compound 1 µM) was less than 31.6 nM, the IC50 (second compound 3.16 µM) was less than 31.6 nM and the IC50 (second compound 10 µM) was less than 31.6 nM. For the same molecule, the viability, T/C (second compound 0.0316 µM, first compound 0.0316 µM) was 55.1%, the viability, T/C (second compound 0.0316 µM, first compound 0.1 µM) was 40% and the viability, T/C (second compound 0.0316 µM, first compound 0.316 µM) was 36.9%. It also gave a viability, T/C (second compound 0.0316 µM, first compound 1 µM) of 15.6%, a viability, T/C (second compound 0.0316 µM, first compound 3.16 µM) of 10.7% and a viability, T/C (second compound 0.0316 µM, first compound 10 µM) of 10.4%. It also gave a viability, T/C (second compound 0.1 µM, first compound 0.0316 µM) of 45.7%, a viability, T/C (second compound 0.1 µM, first compound 0.1 µM) of 54.2% and a viability, T/C (second compound 0.1 µM, first compound 0.316 µM) of 26.8%. The viability, T/C (second compound 0.1 µM, first compound 1 µM) was 13.4%, the viability, T/C (second compound 0.1 µM, first compound 3.16 µM) was 8.3% and the viability, T/C (second compound 0.1 µM, first compound 10 µM) was 8.31%. The viability, T/C (second compound 0.316 µM, first compound 0.0316 µM) was 43.6%, the viability, T/C (second compound 0.316 µM, first compound 0.1 µM) was 43.2% and the viability, T/C (second compound 0.316 µM, first compound 0.316 µM) was 29.1%. It also gave a viability, T/C (second compound 0.316 µM, first compound 1 µM) of 11.7%, a viability, T/C (second compound 0.316 µM, first compound 3.16 µM) of 7.83% and a viability, T/C (second compound 0.316 µM, first compound 10 µM) of 6.31%. The viability, T/C (second compound 1 µM, first compound 0.0316 µM) was 43.8%, the viability, T/C (second compound 1 µM, first compound 0.1 µM) was 45.2% and the viability, T/C (second compound 1 µM, first compound 0.316 µM) was 26.9%. The viability, T/C (second compound 1 µM, first compound 1 µM) was 12.7%, the viability, T/C (second compound 1 µM, first compound 3.16 µM) was 6.2% and the viability, T/C (second compound 1 µM, first compound 10 µM) was 4.69%. For the same molecule, the viability, T/C (second compound 3.16 µM, first compound 0.0316 µM) was 43.4%, the viability, T/C (second compound 3.16 µM, first compound 0.1 µM) was 38.2% and the viability, T/C (second compound 3.16 µM, first compound 0.316 µM) was 22%. For the same molecule, the viability, T/C (second compound 3.16 µM, first compound 1 µM) was 8.28%, the viability, T/C (second compound 3.16 µM, first compound 3.16 µM) was 5.14% and the viability, T/C (second compound 3.16 µM, first compound 10 µM) was 3.32%. It also gave a viability, T/C (second compound 10 µM, first compound 0.0316 µM) of 32.3%, a viability, T/C (second compound 10 µM, first compound 0.1 µM) of 27% and a viability, T/C (second compound 10 µM, first compound 0.316 µM) of 15.1%. The viability, T/C (second compound 10 µM, first compound 1 µM) was 7.44%, the viability, T/C (second compound 10 µM, first compound 3.16 µM) was 3.67% and the viability, T/C (second compound 10 µM, first compound 10 µM) was 1.98%.

— PubChem BioAssay AID2060900 (Molecular Pharmacology Branch, DTP, NCI, 2025)
